Laboratory results from patent US11987556B2, “Dual-functional compounds and methods of use” (BIOFRONT THERAPEUTICS (BEIJING) CO., LTD., priority 2020, dated 2024).

Tests used:
human recombinant PDE4C = human recombinant PDE4C (Homo sapiens (Human), UniProt Q08493); assay: PDE fluorescence polarization assay (BPS Bioscience kit), PDE4C; type: biochemical; details: FAM-cAMP substrate, 1 hr at room temperature; read-out: IC50 for inhibiting PDE4C
Experimental: (§1) The inhibition of PDE4 (e.g., PDE4A, PDE4C) activity by the compounds (e.g., compound-1, compound-2, compound-3, compound-4, compound-5, and compound-6) are monitored using the PDE fluorescence polarization assay kits from BPS Bioscience (San Diego, USA) following the provided procedure. This assay is based on the selective binding of the fluorescent dye FAM-labelled AMP generated by the PDEs from the FAM-cAMP to its binding beads.
(§2) Briefly, compounds (2.5 ul of different concentrations diluted in the assay buffer) were mixed with 12.5 uL of the FAM-cAMP substrate (200 nM in the assay buffer) in a 384-well plate, 10 ul of the human recombinant PDE4A (BPS, Catalog #60340) or PDE4C (BPS, Catalog #60384) was added. The plate was incubated for 1 hr at room temperature. 50 ul of the binding agent for FAM-AMP was added. The mixture was incubated at room temperature for 20 min. The amount of binding agent bound FAM-AMP was measured by the fluorescence polarization method on the Envision spectrometer. The potency (IC50 value, Table1) of exemplified compounds was calculated from the dose-response curve using the 4-parameter non-linear regression fitting routine.

human recombinant PDE4A = human recombinant PDE4A (Homo sapiens (Human), UniProt P27815); assay: PDE fluorescence polarization assay (BPS Bioscience kit), PDE4A; type: biochemical; details: FAM-cAMP substrate, 1 hr at room temperature; read-out: IC50 for inhibiting PDE4A
Chain of human recombinant PDE4A (P27815 other isoform, or with tags, fused parts or gaps isoform P27815-4): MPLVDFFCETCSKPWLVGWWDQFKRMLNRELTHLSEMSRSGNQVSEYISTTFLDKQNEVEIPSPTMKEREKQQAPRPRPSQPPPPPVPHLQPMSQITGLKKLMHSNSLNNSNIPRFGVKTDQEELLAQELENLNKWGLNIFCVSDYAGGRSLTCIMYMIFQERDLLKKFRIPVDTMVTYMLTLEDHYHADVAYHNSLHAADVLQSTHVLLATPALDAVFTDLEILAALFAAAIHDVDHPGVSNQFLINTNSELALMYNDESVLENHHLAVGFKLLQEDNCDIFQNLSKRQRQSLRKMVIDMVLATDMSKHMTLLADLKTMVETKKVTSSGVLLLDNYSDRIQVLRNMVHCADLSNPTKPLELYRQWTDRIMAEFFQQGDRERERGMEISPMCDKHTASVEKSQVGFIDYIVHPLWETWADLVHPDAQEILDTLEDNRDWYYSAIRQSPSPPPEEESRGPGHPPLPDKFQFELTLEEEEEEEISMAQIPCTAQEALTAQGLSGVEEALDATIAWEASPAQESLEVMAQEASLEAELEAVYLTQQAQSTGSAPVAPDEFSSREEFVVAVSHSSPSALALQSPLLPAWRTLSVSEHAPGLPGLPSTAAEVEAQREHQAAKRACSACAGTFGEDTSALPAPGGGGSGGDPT
Experimental: as §1, §2

[1] = Blood level of compound-6 produced after oral dosing of compound-1 in mice; type: in vivo; details: 5 mg/kg
Experimental: The exemplified compound-1 (formulated at 0.5 mg/mL in 0.5% carboxymethyl cellulose (CMC)/0.25% Tween-80 in water as a suspension) was dosed orally to 4 mice at 5 mg/kg. […] Approximately 200 ng/mL of compound-6 was detected in the blood at 15 min. Compound-6 blood level peaked at approximately 250 ng/mL between 1 to 2 hrs, and mostly cleared to around 25 ng/mL at 6 hr. […] This kinetic profile of compound-6 blood level provides the opportunities to treat diseases that are responsive to compound-6 treatment, beyond dosing compound-6 directly, such as reducing the expected high Cmax-caused side effects from directly dosing compound-6.

Chain of human recombinant PDE4C (Q08493 whole entry): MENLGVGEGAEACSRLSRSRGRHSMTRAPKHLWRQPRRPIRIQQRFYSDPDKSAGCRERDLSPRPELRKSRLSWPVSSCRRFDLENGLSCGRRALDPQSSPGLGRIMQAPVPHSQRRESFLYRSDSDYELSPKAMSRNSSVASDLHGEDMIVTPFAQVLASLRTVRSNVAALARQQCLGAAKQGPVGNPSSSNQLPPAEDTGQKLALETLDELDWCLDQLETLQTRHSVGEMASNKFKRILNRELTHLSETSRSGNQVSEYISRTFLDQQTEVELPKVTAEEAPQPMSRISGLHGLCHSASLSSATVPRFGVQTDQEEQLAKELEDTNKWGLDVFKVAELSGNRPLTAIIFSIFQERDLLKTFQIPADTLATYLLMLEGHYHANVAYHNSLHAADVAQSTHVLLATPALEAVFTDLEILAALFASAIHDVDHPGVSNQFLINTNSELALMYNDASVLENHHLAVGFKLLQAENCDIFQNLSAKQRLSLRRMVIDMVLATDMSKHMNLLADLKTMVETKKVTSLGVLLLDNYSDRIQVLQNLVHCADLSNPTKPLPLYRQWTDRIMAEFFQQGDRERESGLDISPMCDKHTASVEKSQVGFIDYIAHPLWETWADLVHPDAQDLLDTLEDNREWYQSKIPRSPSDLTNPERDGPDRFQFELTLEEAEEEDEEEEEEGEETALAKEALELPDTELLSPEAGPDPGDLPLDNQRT

IC50 (human recombinant PDE4C) | IC50 (human recombinant PDE4A) | bioactivation after oral dosing, forming metabolite compound-6 [1] | Structure (SMILES)
0.826 µM | 0.038 µM | – | CCOc1cc([C@@H](CS(C)(=O)=O)N2C(=O)c3cccc(NC(=O)CNC(=O)O[C@H]4CO[C@H]5[C@@H]4OC[C@H]5O[N+](=O)[O-])c3C2=O)ccc1OC [compound-5, (3S,3aR,6R,6aS)-6-(nitrooxy)hexahydrofuro[3,2-b]furan-3-yl (2-((2-((S)-1-(3-ethoxy-4-methoxyphenyl)-2-(methylsulfonyl)ethyl)-1,3-dioxoisoindolin-4-yl)amino)-2-oxoethyl)carbamate]
0.109 µM | 0.71 µM | – | CCOc1cc([C@@H](CS(C)(=O)=O)N2C(=O)c3cccc(NC(=O)CO[C@H]4CO[C@H]5[C@@H]4OC[C@H]5O[N+](=O)[O-])c3C2=O)ccc1OC [compound-4, (3R,3aS,6S,6aR)-6-(2-((2-((S)-1-(3-ethoxy-4-methoxyphenyl)-2-(methylsulfonyl)ethyl)-1,3-dioxoisoindolin-4-yl)amino)-2-oxoethoxy)hexahydrofuro[3,2-b]furan-3-yl nitrate]
2.23 µM | 0.178 µM | bioactivated rapidly | CCOc1cc([C@@H](CS(C)(=O)=O)N2C(=O)c3cccc(NC(=O)COC(=O)C(C)(C)CO[N+](=O)[O-])c3C2=O)ccc1OC [compound-1, (S)-2-((2-(1-(3-ethoxy-4-methoxyphenyl)-2-(methylsulfonyl)ethyl)-1,3-dioxoisoindolin-4-yl)amino)-2-oxoethyl 2,2-dimethyl-3-(nitrooxy)propanoate]
1.02 µM | 0.215 µM | – | CCOc1cc([C@@H](CS(C)(=O)=O)N2C(=O)c3cccc(NC(=O)CNC(=O)C(C)(C)CO[N+](=O)[O-])c3C2=O)ccc1OC [compound-3, (S)-3-((2-((2-(1-(3-ethoxy-4-methoxyphenyl)-2-(methylsulfonyl)ethyl)-1,3-dioxoisoindolin-4-yl)amino)-2-oxoethyl)amino)-2,2-dimethyl-3-oxopropyl nitrate]
0.734 µM | 0.214 µM | – | CCOc1cc([C@@H](CS(C)(=O)=O)N2C(=O)c3cccc(NC(=O)CO)c3C2=O)ccc1OC [compound-6, N-{2-[(1S)-1-(3-ethoxy-4-methoxyphenyl)-2-methanesulfonylethyl]-1,3-dioxoisoindol-4-yl}-2-hydroxyacetamide]

Structure (SMILES) | IC50 (human recombinant PDE4C) | IC50 (human recombinant PDE4A) | bioactivation after oral dosing, forming metabolite compound-6 [1]
CCOc1cc([C@@H](CS(C)(=O)=O)N2C(=O)c3cccc(NC(=O)COC(=O)C(C)(CO[N+](=O)[O-])CO[N+](=O)[O-])c3C2=O)ccc1OC [compound-2, (S)-2-((2-(1-(3-ethoxy-4-methoxyphenyl)-2-(methylsulfonyl)ethyl)-1,3-dioxoisoindolin-4-yl)amino)-2-oxoethyl 2-methyl-3-(nitrooxy)-2-((nitrooxy)methyl)propanoate] | 2.26 µM | 0.308 µM | –
